Measurements published in ChEMBL document CHEMBL4368907 (J Med Chem, 2019).
Numbered stars: 1 amine (or outer) side, 2 acyl side, 3 side chain; on linkers, the order of the positions; unused ones are H or OH. Square brackets hold non-standard residues; d marks the D form. Side chains are listed from the residue outwards. Peptide text beside a SMILES is read from it. * marks the point of attachment. Phe(4-CH2SO3H) = N[C@@H](Cc1ccc(CS(=O)(=O)O)cc1)C(=O)O; C18 diacid = O=C(O)CCCCCCCCCCCCCCCCC(=O)*; γGlu = O=C(O)[C@H](CCC(=O)[*:2])N[*:1]; βAsp = O=C(O)[C@H](CC(=O)[*:2])N[*:1]; NMeF = CN[C@@H](Cc1ccccc1)C(=O)O; NMeD = CN[C@@H](CC(=O)O)C(=O)O; dNMeD = CN[C@H](CC(=O)O)C(=O)O; Nle = CCCC[C@H](N)C(=O)O; X1 = O=C(Cc1ccc(O)cc1)*; AEEA = NCCOCCOCC(=O)O

Legend:
[1] = Drug level in Ellegaard Gottingen minipig plasma treated with C18d-gammaGlu-(OEG)2-Asp-Phe(4sm)-Nle-Gly-Trp-Nle-DMeAspMePhe-NH2 at 5 nmol/kg, iv administered as single dose by LC-MS/MS analysis; format: ADME, organism-based, Sus scrofa; conditions: pig, in vivo
[2] = target: T1, Gastrin/cholecystokinin type B receptor (Homo sapiens, UniProt P32239); test: Agonist activity at human CCK2R expressed in human 1321N1 cells assessed as IP1 accumulation after 1 hr by HTRF assay; format: functional, cell-based
T1 sequence (P32239 whole entry): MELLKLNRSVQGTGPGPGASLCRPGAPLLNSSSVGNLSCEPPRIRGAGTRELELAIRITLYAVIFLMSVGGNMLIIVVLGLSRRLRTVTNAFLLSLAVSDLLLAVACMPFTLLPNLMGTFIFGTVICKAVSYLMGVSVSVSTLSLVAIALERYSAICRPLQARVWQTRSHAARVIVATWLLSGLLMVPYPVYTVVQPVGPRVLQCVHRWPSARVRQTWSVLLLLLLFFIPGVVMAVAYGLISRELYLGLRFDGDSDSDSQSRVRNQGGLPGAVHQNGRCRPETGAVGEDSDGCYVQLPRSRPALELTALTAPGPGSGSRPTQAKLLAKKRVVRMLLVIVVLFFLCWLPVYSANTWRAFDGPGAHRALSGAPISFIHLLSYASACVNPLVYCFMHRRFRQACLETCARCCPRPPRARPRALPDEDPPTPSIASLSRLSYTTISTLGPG

[3] = target: T2, Cholecystokinin receptor type A (Homo sapiens, UniProt P32238); test: Agonist activity at human CCK1R expressed in human 1321N1 cells assessed as IP1 accumulation after 1 hr by HTRF assay; format: functional, cell-based
T2 sequence (P32238 whole entry): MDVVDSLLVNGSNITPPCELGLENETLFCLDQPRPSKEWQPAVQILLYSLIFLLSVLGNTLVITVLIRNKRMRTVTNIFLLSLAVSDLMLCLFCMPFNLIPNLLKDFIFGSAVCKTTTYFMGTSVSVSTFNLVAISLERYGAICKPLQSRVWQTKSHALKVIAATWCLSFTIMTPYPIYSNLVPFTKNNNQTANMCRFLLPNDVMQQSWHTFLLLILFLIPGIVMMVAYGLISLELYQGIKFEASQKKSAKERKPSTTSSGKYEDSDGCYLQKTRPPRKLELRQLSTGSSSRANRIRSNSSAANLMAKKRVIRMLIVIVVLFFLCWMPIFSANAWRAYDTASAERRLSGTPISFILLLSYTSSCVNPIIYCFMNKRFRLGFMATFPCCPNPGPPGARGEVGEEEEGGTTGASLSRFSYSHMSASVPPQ

[4] = target: T2, Cholecystokinin receptor type A; test: Displacement of [125I]-CCK-8 from human CCK1R expressed in human 1321N1 cell membranes after 2 hrs by SPA assay
[5] = Plasma concentration in lean Landrace Yorkshire Duroc pig at 30 nmol/kg, sc measured after 96 hrs post dose; format: ADME, organism-based, Sus scrofa
[6] = Terminal half life in Ellegaard Gottingen minipig at 5 nmol/kg, iv by LC-MS/MS analysis; format: ADME, organism-based, Sus scrofa; conditions: pig, in vivo, read-out: beta t1/2 (converted)
[7] = target: T1, Gastrin/cholecystokinin type B receptor; test: Displacement of [125I]-CCK-8 from human CCK2R expressed in human 1321N1 cell membranes after 2 hrs by SPA assay
[8] = Toxicity in lean Landrace Yorkshire Duroc pig at 30 nmol/kg, sc measured up to 96 hrs post dose; format: organism-based, Sus scrofa; conditions: in vivo
[9] = test system: Sus scrofa; test: Anti-obesity activity in lean Landrace Yorkshire Duroc pig assessed as food intake at 30 nmol/kg, sc measured at 72 to 96 hrs post dose (reference value: 1.8 to 2.1 kg); format: functional
[10] = test system: Sus scrofa; test: Anti-obesity activity in lean Landrace Yorkshire Duroc pig assessed as food intake at 30 nmol/kg, sc measured at 48 to 72 hrs post dose (reference value: 1.8 to 2.1 kg); format: functional
[11] = test system: Sus scrofa; test: Anti-obesity activity in lean Landrace Yorkshire Duroc pig assessed as food intake at 30 nmol/kg, sc measured up to 24 hrs post dose (reference value: 1.8 to 2.1 kg); format: functional
[12] = test system: Sus scrofa; test: Anti-obesity activity in lean Landrace Yorkshire Duroc pig assessed as food intake at 30 nmol/kg, sc measured at 24 to 48 hrs post dose (reference value: 1.8 to 2.1 kg); format: functional
[13] = Drug level in sodium phosphate buffer treated with 1 mM (2R,5S,8S,14S,17S,20S,43S)-8-((1H-indol-3-yl)methyl)-2-(((S)-1-amino-1-oxo-3-phenylpropan-2-yl)(methyl)carbamoyl)-5,14-dibutyl-20-(carboxymethyl)-3-methyl-4,7,10,13,16,19,22,31,40,45-decaoxo-17-(4-(sulfomethyl)benzyl)-24,27,33,36-tetraoxa-3,6,9,12,15,18,21,30,39,44-decaazahenhexacontane-1,43,61-tricarboxylic acid assessed as compound formation at pH 7.4 at 37 degC after 1 to 2 weeks by UHLPC-UV analysis; format: physicochemical

| SMILES | Drug uptake [1] | pEC50 [2] | pEC50 [3] | pIC50 [4] | concentration at 96 h [5] | half-life [6] | pIC50 [7] | Activity [8] | Activity [9] | Activity [10] | Activity [11] | Activity [12] | EC50 [3] | IC50 [4] | Drug uptake [13] |
| --- | --- | --- | --- | --- | --- | --- | --- | --- | --- | --- | --- | --- | --- | --- | --- |
| O=C(O)CCCCCCCCCCCCCCCCC(=O)N[C@@H](CCC(=O)NCCOCCOCC(=O)NCCOCCOCC(=O)N[C@@H](CC(=O)O)C(=O)N[C@@H](Cc1ccc(CS(=O)(=O)O)cc1)C(=O)O)C(=O)O | Active |  |  |  |  |  |  |  |  |  |  |  |  |  |  |
| CCCC[C@H](NC(=O)[C@H](Cc1c[nH]c2ccccc12)NC(=O)CNC(=O)[C@H](CC(C)C)NC(=O)[C@H](Cc1ccc(O)cc1)NC(=O)[C@H](CC(=O)O)NC(=O)COCCOCCNC(=O)COCCOCCNC(=O)CC[C@H](NC(=O)CCCCCCCCCCCCCCCCC(=O)O)C(=O)O)C(=O)N(C)[C@@H](CC(=O)O)C(=O)N(C)[C@@H](Cc1ccccc1)C(N)=O [listing 1 of 2 here] |  | < 6 | 9.81 | 8.99 | 8.5 nM | 45 h | 5.31 | Non-Toxic |  |  |  |  |  |  |  |
| CCCC[C@H](NC(=O)[C@H](Cc1c[nH]c2ccccc12)NC(=O)CNC(=O)[C@H](CC(C)C)NC(=O)[C@H](Cc1ccc(O)cc1)NC(=O)[C@H](CC(=O)O)NC(=O)COCCOCCNC(=O)COCCOCCNC(=O)CC[C@H](NC(=O)CCCCCCCCCCCCCCCCC(=O)O)C(=O)O)C(=O)N(C)[C@@H](CC(=O)O)C(=O)N(C)[C@@H](Cc1ccccc1)C(N)=O [listing 2 of 2 here] |  |  |  |  |  |  |  |  | 2.3 kg | 2.6 kg | 2.3 kg | 2.2 kg |  |  |  |
| CCCC[C@H](NC(=O)[C@H](Cc1c[nH]c2ccccc12)NC(=O)CNC(=O)[C@H](CCCCNC(=O)COCCOCCNC(=O)COCCOCCNC(=O)CC[C@H](NC(=O)CCCCCCCCCCCCCCCCC(=O)O)C(=O)O)NC(=O)Cc1ccc(O)cc1)C(=O)N(C)[C@@H](CC(=O)O)C(=O)N(C)[C@@H](Cc1ccccc1)C(N)=O (X1-K([AEEA-AEEA-γGlu-C18 diacid])GW[Nle][NMeD][NMeF]-NH2) [listing 1 of 2 here] |  | < 6 | 9.8 | 9.28 | < 0.9 nM | 7.1 h | 5.43 | Non-Toxic |  |  |  |  |  |  |  |
| CCCC[C@H](NC(=O)[C@H](Cc1c[nH]c2ccccc12)NC(=O)CNC(=O)[C@H](CCCCNC(=O)COCCOCCNC(=O)COCCOCCNC(=O)CC[C@H](NC(=O)CCCCCCCCCCCCCCCCC(=O)O)C(=O)O)NC(=O)Cc1ccc(O)cc1)C(=O)N(C)[C@@H](CC(=O)O)C(=O)N(C)[C@@H](Cc1ccccc1)C(N)=O (X1-K([AEEA-AEEA-γGlu-C18 diacid])GW[Nle][NMeD][NMeF]-NH2) [listing 2 of 2 here] |  |  |  |  |  |  |  |  | 2.4 kg | 2.1 kg | 2.1 kg | 2.2 kg |  |  |  |
| CCCC[C@H](NC(=O)[C@H](Cc1ccc(CS(=O)(=O)O)cc1)NC(=O)C[C@H](NC(=O)COCCOCCNC(=O)COCCOCCNC(=O)CC[C@H](NC(=O)CCCCCCCCCCCCCCCCC(=O)O)C(=O)O)C(=O)O)C(=O)NCC(=O)N[C@@H](Cc1c[nH]c2ccccc12)C(=O)N[C@@H](CCCC)C(=O)N(C)[C@H](CC(=O)O)C(=O)N(C)[C@@H](Cc1ccccc1)C(N)=O ({C18 diacid-γGlu-AEEA-AEEA-βAsp}-[Phe(4-CH2SO3H)][Nle]GW[Nle][dNMeD][NMeF]-NH2) |  |  |  |  | 88.7 nM | 106 h |  | Non-Toxic | 1.7 kg | 1.8 kg | 1.1 kg | 1.5 kg | 0.316 nM | 0.0794 nM | Active |
